Assay results from patent US7144862B2, “Orally administered peptides to ameliorate atherosclerosis” (The Regents of the University of California, priority 2000, dated 2006).
Converted amounts (≈) assume the structure as drawn. “And” between values parts separate entries of the source, which are not always exact repeats. Identical values can stand only once. Like-named read-outs stand apart in the source and are kept apart here. Non-standard residues stand in square brackets, D forms with d. Residues, ends and D or L forms follow the SMILES beside them.

Tests used:
Solubility in PBS = type: physicochemical
Protocol: The peptides were purified on a preparative Vydac C4 column by reversed-phase (RP)-HPLC using water (with 0.1% trifluoroacetic acid) and acetonitrile (0.1% trifluoroacetic acid). The purity and the retention times of the peptides were determined on an analytical Vydac C18 column using a gradient of 25%-58% acetonitrile in water containing 0.1% TFA. The purity of these peptides was also confirmed by mass spectrometry. The mass was in agreement with the calculated molecular weight. Although both the 3F peptides and 4F have additional Phe residues compared to 2F, the retention times of these peptides on the C18 column are not very different (˜22 min). A sudden increase in the retention time is apparent with 5F, 6F and 7F (˜26 min). With increasing number of Phe residues, the solubility of these peptides in PBS decreases.

[1] = Surface pressure measurements: monolayer exclusion pressure; type: physicochemical; settings: EPC monolayer; reproducibility ± 1 dyn/cm
Protocol: An insoluble monolayer of egg phosphatidylcholine (EPC) was spread at the air-water interface in a Teflon dish at room temperature to give an initial surface pressure (πi) in the range of 5–45 dyn/cm. A solution of peptides in PBS containing 1.5M Gdn. HCl was carefully injected in to the subphase to give a final concentration of 50 μg/dL. The Gdn. HCl was diluted in the subphase to a final concentration of ≦1 mM to allow the peptides to renature. The subphase was stirred continuously and the increase in EPC monolayer surface pressure (Δπ) was recorded until a steady state value was obtained. The value of the initial surface pressure (πi) at which the peptides no longer penetrate the EYPC monolayer i.e. the exclusion pressure (πe), was calculated by extrapolating the πi vs Δπ linear regression fit to Δπ=0 dyn/cm.

[2] = Circular dichroism, percent helicity; type: physicochemical; settings: for Percent Helicity PBS: 11 μM peptide in PBS; for Percent Helicity DMPC: 11 μM peptide, Peptide: DMPC 1:20 (mol/mol)
Protocol: Briefly, spectra were obtained using a cell with a 0.1 cm path length and measurements were taken every nm from 260 nm to 190 nm at 25° C. All the CD spectra were signal averaged by adding four scans, base line corrected and smoothed. Peptide solutions in PBS, pH 7.4, were used at a concentration of 11 μM. Peptide-DMPC complexes (1:20 mol:mol) were used to determine the effect of lipid binding on the helicity of these peptides. These complexes were prepared by adding the appropriate volume of peptide solution to DMPC multilamellar vesicles. DMPC multilamellar vesicles were prepared as follows: A known amount of lipid was dissolved in ethanol and the solvent was removed by evaporating slowly under a thin stream of nitrogen. Residual solvent was removed by storing the lipid film under vacuum overnight. An appropriate volume of PBS, pH 7.4 was added to the thin lipid film to give the required final concentration of DMPC.

[3] = DSC, chain melting transition of DMPC; type: physicochemical; settings: DMPC/peptide 100:1 (mol/mol); for TCM(° C.): 1.5 mM DMPC, chain melting transition temperature; for ΔHCM (kcals/mol): enthalpy of the transition; for ΔT1/2 (° C.): width at half maximum of the transition
Protocol: (§1) A known amount of phospholipid was dissolved in chloroform. For one set of samples, peptide was dissolved in methanol and added to a solution of DiPoPE in chloroforn/methanol (2:1, v:v). For both, pure lipid samples and the organic solutions of lipid and peptide, solvent was removed under a slow stream of nitrogen. Residual solvent was removed under vacuum. […] For DMPC, four consecutive scans with a 60 minute equilibration time between scans were taken. DSC thermograms were analyzed using the software provided by MicroCal Inc., Amherst, Mass., and Origin, version 5.0.
The effect of these 18A analogues on the chain melting transition of multilamellar vesicles of DMPC was studied by DSC using peptide-lipid mixtures at 100:1 lipid/peptide molar ratio.

[4] = DSC, bilayer to hexagonal phase transition of DiPoPE; type: physicochemical; settings: heating scan rate 37°/h
Protocol: as §1
In the current study we prepared the peptide-lipid mixtures in two ways. One was by adding the peptide in organic solvent to the lipid in organic solvent followed by depositing the material as a film and subsequently hydrating with buffer. In the other method, the peptide and lipid were mixed after each was hydrated separately. If the mixture comes to equilibrium prior to the DSC analysis, it should not matter how the peptide and lipid are originally mixed. However, membrane systems can equilibrate slowly, in which case there may be more peptide in the lipid when it was incorporated at high concentrations into the lipid film.

[5] = Right angle light scattering, dissolution of EPC MLVs; type: physicochemical; settings: 105 μM EPC, equimolar peptide; for clarification of EPC MLVs: 25° C., 30 min
Protocol: EPC MLVs were prepared by evaporating a solution of EPC (Avanti Polar, AL) under nitrogen and hydrating the lipid film with phosphate-buffered saline (pH 7.4). […] Turbidity clarification was monitored for 30 min.

[6] = test system: human artery wall cell cocultures; assay: LDL-induced monocyte chemotactic activity with the homologous series of peptides (Example 3); type: cell-based; settings: peptide at 100 μg/ml, LDL 250 μg protein/ml, 8 h
Protocol: Microtitre plates were treated with 0.1% gelatin at 37° C. overnight. HASMC were added at a confluent density of 1×10^5 cells/cm^2. […] HAEC were subsequently added at 2×10^5 cells/cm^2 and were allowed to grow, forming a complete monolayer of confluent HAEC in two days. In all experiments, HAEC and autologous HASMC (from the same donor) were used at passage levels of four to six. […] The cocultures were treated with native LDL(250 μg protein/ml) or presence of HDL (350 μg protein/ml) or peptides for 8 h.

[7] = test system: human artery wall cell cocultures; assay: Lipoproteins from mice given peptide by gavage tested in human artery wall cell cocultures (monocyte chemotactic activity)
Protocol: Groups of LDL receptor-deficient mice (n=3) were administered the D-peptides or the saline vehicle by gavage. […] Blood was collected from retroorbital sinus under mild anesthesia 17 hrs later. LDL was isolated from plasma by FPLC. Cocultures of artery wall cells were incubated with medium alone (NO ADDITION), control LDL from normal subjects (LDL), LDL plus control HDL from normal subjects (+HDL). […] The cocultures were incubated for 4 hrs at 37° C. in the presence of 10% LPDS. The supernatants were then discarded, the cocultures were washed and incubated with culture medium without serum or LPDS for an additional 4 hrs. This conditioned medium was collected and analyzed for monocyte chemotactic activity. The values are mean±SD of quadruplicate cocultures.
Blood was collect after 6 hrs, plasma HDL and LDL were isolated by gel filtration (FPLC) and examined in the cocultures. […] Human LDL at 200 μg protein/ml was added to human artery wall cell cocultures together with human HDL (hHDL) at 350 μg protein/ml or mouse HDL (mHDL) at 100 μg cholesterol/ml taken from mice that received saline (Saline Rx) or L-4F (L-4F Rx) or D-4F (D-4F Rx) and monocyte chemotactic activity was determined as described herein. […] On the right, mouse LDL (mLDL) was isolated from mice receiving saline (Saline Rx) or L-4F (L4F Rx) or D-4F (D-4F Rx) and was added at 100 μg cholesterol/ml to the artery wall cell cocultures without HDL and monocyte chemotactic activity determined. Values are mean±SD) for four wells in two independent experiments.
Either saline or 2F synthesized from D amino acids or from L amino acids was instilled in the stomachs of mice by gavage (instillation in the stomach by tube). After gavage the mice were bled and their LDL isolated and added to the human artery wall cell cocultures.
The animals were bled 1.5, 3 or 6 hours later and their HDL, LDL, and VLDL/IDL isolated.
Human aortic endothelial and smooth muscle cells were isolated and cultured as previously described (Id.). Cellular oxidation of LDL in the presence and absence of HDL was determined as described (Id.). Human blood monocytes were isolated after obtaining informed consent and monocyte chemotaxis was determined as described previously^5.

[8] = test system: Human aortic wall cocultures; assay: LDL plus peptide in vitro in human aortic wall cocultures, monocyte chemotactic activity (Example 2); type: cell-based; settings: control LDL 250 μg/ml plus varying amounts of peptide
Protocol: Human aortic wall cocultures were incubated with medium alone (LDL, NO CELLS or CELLS, NO LDL, see FIG. 9), control LDL from normal subjects at 250 μg/ml (LDL) and LDL plus control HDL from normal subjects at 350 μg/ml (+HDL). Other cocultures were incubated With the control LDL together with varying amounts (micrograms shown on the abscissa) of either D-2F, or L-2F (third panel from the left, 2F) or D-37-pA or L-37pA (last panel on the right, 37pA). The data represent mean±SD of values obtained from quadruplicate cocultures.

[9] = mouse, in vivo
Protocol: The 5F peptide, MoAI, and human apo A-I were labeled with ^125I by the method of Bilheimer et al. (1972) Biochim. Biophys. Acta 260: 212–221. Mice were placed on a modified Thomas-Hartroft atherogenic diet (#TD88051; Teklad, Madison, Wis.) for four weeks at which time daily intraperitoneal injections of peptide or protein dissolved in 200 μl phosphate-buffered saline (PBS) were begun. Animals injected with MoAI or human apo A-I received 50 μg per animal; those injected with 5F received 20 μg. Animals were not fasted for the kinetic studies and blood samples were taken under xylazine:ketamine anesthesia from the retro-orbital sinus at 15, 30, and 45 minutes, and 1, 1.5, 2, 3, 4, 6, 8, 12, and 24 hours following injection. Each animal provided three blood samples at different time points (all retro-orbital and alternating eyes), and at least three samples were collected (from different animals) at each time point. Samples were collected into heparinized capillary tubes, then placed in microcentrifuge tubes; the plasma was separated by centrifugation. Duplicate 10 μl aliquots of each sample were taken for radioactivity determination, using gamma counting (Cobra; Packard Instruments, Downers Grove, Ill.) for 10 minutes per sample. Total plasma volume was calculated as 4.2% body weight. Each sample was expressed as percent of injected CPM in total plasma. Free ^125I was determined by trichloroacetic acid (TCA) precipitation (1 ml of 10% TCA per 10 μl plasma sample). Fitting to the kinetic model was done using all data points, rather than averages at each time point (PKAnalyst, MicroMath Scientific Software, Salt Lake City, Utah).
Treatment groups were compared by two-tailed t-tests or one way analysis of variance (where the data were normally distributed), or by one way analysis of variance on ranks (SigmaStat; SPSS Science, Chicago, Ill.). Kinetics of peptide or protein turnover were analyzed by fitting to a first order one-compartment kinetic model assuming non-equal input and output rates (PKAnalyst; MicroMath Scientific Software, Salt Lake City, Utah).

[10] = 5F, 100 μg per animal by oral gavage, LDL receptor null mice, blood after 6 hrs

Molecule | Solubility (Solubility in PBS) [mg/mL] | Monolayer Exclusion Pressure(πc) [1] | Percent Helicity PBS [2] [%] | Percent Helicity DMPC [2] [%] | TCM(° C.) [3] [°C] | ΔHCM (kcals/mol) [3] [kcals/mol] | ΔT1/2 (° C.) [3] [°C] | shift in TH of DiPoPE with mol fraction of peptide [4] | clarification of EPC MLVs [5] | inhibition of LDL-induced monocyte chemotaxis [6] | solubility (Solubility in PBS; in PBS, read-out: Solubility) [mg/mL] | further results
CC(=O)N[C@@H](CC(=O)O)C(=O)N[C@@H](Cc1c[nH]c2ccccc12)C(=O)N[C@@H](Cc1ccccc1)C(=O)N[C@@H](CCCCN)C(=O)N[C@@H](C)C(=O)N[C@@H](Cc1ccccc1)C(=O)N[C@@H](Cc1ccc(O)cc1)C(=O)N[C@@H](CC(=O)O)C(=O)N[C@@H](CCCCN)C(=O)N[C@H](C(=O)N[C@@H](C)C(=O)N[C@@H](CCC(=O)O)C(=O)N[C@@H](CCCCN)C(=O)N[C@@H](Cc1ccccc1)C(=O)N[C@@H](CCCCN)C(=O)N[C@@H](CCC(=O)O)C(=O)N[C@@H](C)C(=O)N[C@@H](Cc1ccccc1)C(N)=O)C(C)C [Peptide 4F, Ac-D-W-F-K-A-F-Y-D-K-V-A-E-K-F-K-E-A-F-NH2] | 1.30 (≈ 563 µM) | 40 dyn/cm | 45 | 44 | 23.2 | 5.3 | 0.4 | more rapid increase is observed at lower peptide concentrations | most effective in clarifying EPC MLVs with activity similar to that of Triton X-100 | significant and similar inhibition | – | solubility (Solubility in PBS; Solubility (mg/ml)): 1.25 to 1.4 mg/mL (≈ 541 to 606 µM); time for 50% clearance of the turbidity of EPC MLVs [5]: shortest
CC(=O)N[C@H](CC(=O)O)C(=O)N[C@H](Cc1c[nH]c2ccccc12)C(=O)N[C@H](CC(C)C)C(=O)N[C@H](CCCCN)C(=O)N[C@H](C)C(=O)N[C@H](Cc1ccccc1)C(=O)N[C@H](Cc1ccc(O)cc1)C(=O)N[C@H](CC(=O)O)C(=O)N[C@H](CCCCN)C(=O)N[C@@H](C(=O)N[C@H](Cc1ccccc1)C(=O)N[C@H](CCC(=O)O)C(=O)N[C@H](CCCCN)C(=O)N[C@H](Cc1ccccc1)C(=O)N[C@H](CCCCN)C(=O)N[C@H](CCC(=O)O)C(=O)N[C@H](Cc1ccccc1)C(=O)N[C@H](Cc1ccccc1)C(N)=O)C(C)C [Peptide D-5F, Ac-D-W-L-K-A-F-Y-D-K-V-F-E-K-F-K-E-F-F-NH2] (Ac-[dD][dW][dL][dK][dA][dF][dY][dD][dK][dV][dF][dE][dK][dF][dK][dE][dF][dF]-NH2) | – | – | – | – | – | – | – | – | – | – | – | HDL protective capacity [7, 10]: markedly more protective; LDL resistance to oxidation [7, 10]: highly resistant to oxidation; monocyte chemotactic activity induced by mouse VLDL/IDL fraction ([7]; 50 micrograms by gavage, 3 hour time point): significantly less monocyte chemotactic activity; protection of control LDL by mouse HDL ([7]; 50 micrograms by gavage, HDL taken after 6 hours): slightly less; monocyte chemotactic activity induced by mouse LDL ([7]; 50 micrograms by gavage, after 3 h and 6 h): significantly less monocyte chemotactic activity
Ac-DWFKAFYDKFFEKFKEFF-NH2 [Peptide 7F, Ac-D-W-F-K-A-F-Y-D-K-F-F-E-K-F-K-E-F-F-NH2] | – | 45 dyn/cm | 58 | 68 | 23.2 | 4.5 | 0.5 | do not significantly affect TH | clarified the EPC MLVs to a similar extents | significantly less effective than peptides 4F, 5F and 6F | – | initial lag period in EPC MLV clearance [5]: ~300 s; time for 50% clearance of the turbidity of EPC MLVs [5]: longest time
Ac-DWFKAFYDKVAEKLKEAF-NH2 [3F^3] | – | – | – | – | – | – | – | – | – | – | 1.25 to 1.4 | –
Ac-DWLKAFYDKFFEKFKEFF-NH2 [Peptide 6F, Ac-D-W-L-K-A-F-Y-D-K-F-F-E-K-F-K-E-F-F-NH2] | 0.03 | 45 dyn/cm and 46 dyn/cm | 67 | 50 | 23.1 | 4.0 | 0.5 | do not significantly affect TH | clarified the EPC MLVs to a similar extents | significant and similar inhibition | – | solubility (Solubility in PBS; Solubility (mg/ml)): 0.03 to 0.1 mg/mL
Ac-DWLKAFYDKVFEKFKEFF-NH2 [Peptide L-5F, Ac-D-W-L-K-A-F-Y-D-K-V-F-E-K-F-K-E-F-F-NH2] | – | – | – | – | – | – | – | – | – | – | – | HDL protective capacity [7, 10]: but not L-5F rendered the HDL markedly more protective
H-DWLKAFYDKVAEKLKEAF-OH [Peptide 18A, D-W-L-K-A-F-Y-D-K-V-A-E-K-L-K-E-A-F, reference compound] | – | 30 dyn/cm | – | – | – | – | – | – | – | – | > 2 | –
H-DWLKAFYDKVAEKLKEAFPDWLKAFYDKVAEKLKEAF-OH [Peptide 37pA, DWLKAFYDKVAEKLKEAFPDWLKAFYDKVAEKLKEAF, reference compound] | – | 40 dyn/cm and 41 dyn/cm | – | – | – | – | – | – | – | – | > 2 | –
H-DWLKAFYDKVAEKLKEAFPDWLKAFYDKVAEKLKEAF-OH [Peptide L-37pA, reference compound] | – | – | – | – | – | – | – | – | – | – | – | monocyte chemotactic activity induced by LDL treated with peptide in vitro [8]: significantly different from LDL
Human apo A-I: Human apo A-I is a 243 residue protein, major protein constituent of HDL | >2.0 | 34 dyn/cm | – | – | – | – | – | – | does not clarify EPC MLVs | – | – | Max. % in plasma [9]: 23.7%; Time (h) to max. CPM ([9]; ip): 3.61 h; T½ ([9]; ip): 15.6 h
